How the values were obtained:
[1] = molecular target: T1, Folate transporter 1 (SLC19A1) (Homo sapiens, UniProt P41440); experiment: TMT LC-MSMS of 11-labelled proteins; format: cell-based
T1 sequence (P41440 1-591): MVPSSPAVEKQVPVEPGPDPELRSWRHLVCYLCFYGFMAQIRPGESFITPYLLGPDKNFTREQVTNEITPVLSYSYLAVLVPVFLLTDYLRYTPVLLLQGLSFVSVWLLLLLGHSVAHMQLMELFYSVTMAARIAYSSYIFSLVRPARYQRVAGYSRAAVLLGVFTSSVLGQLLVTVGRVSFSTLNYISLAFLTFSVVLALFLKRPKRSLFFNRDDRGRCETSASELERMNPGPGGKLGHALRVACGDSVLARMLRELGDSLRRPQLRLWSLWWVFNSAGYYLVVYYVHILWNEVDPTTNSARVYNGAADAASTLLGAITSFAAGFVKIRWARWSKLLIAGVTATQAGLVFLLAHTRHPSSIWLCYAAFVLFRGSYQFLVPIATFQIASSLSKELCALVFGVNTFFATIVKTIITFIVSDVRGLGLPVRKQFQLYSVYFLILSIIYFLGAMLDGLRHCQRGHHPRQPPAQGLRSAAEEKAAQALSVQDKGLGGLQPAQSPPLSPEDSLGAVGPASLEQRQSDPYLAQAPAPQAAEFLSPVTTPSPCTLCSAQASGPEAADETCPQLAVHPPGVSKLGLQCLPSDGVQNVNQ
Text: (§1) The labelled proteins were enriched by immunoprecipitation with an anti-fluorescein antibody and tryptically digested in gel. Digested peptides were modified with Light- (L-), Medium- (M-), or Heavy- (H-) TMT reagent for samples treated with 11, 11 with PU-H71 (as competitive condition), or DMSO (vehicle), respectively, and mixed in a 1:1:1 ratio for LC-MSMS analysis. We performed three experimental replicates, in which proteins detected and quantified at least twice were selected as identified proteins. According to the related approach of Cravatt et al[44], the proteins having L/H (11/DMSO) ratios >5 were defined as 11-labelled proteins. […] On the basis of these criteria, we identified 6 proteins that react with 11, including three ligand-specific targets (Hsp90α (HSP90AA1), Hsp90β (HSP90AB1), and Grp94 (HSP90B1)) and three off-targets (Trifunctional enzyme subunit α (HADHA), Tubulin-α (TUBA1B), and ADP/ATP translocase 3 (SLC25A6)) (Fig. 5d, e and Supplementary Data 1). […] Grp94, a HSP90 isomer, was previously reported to be a PU-H71 specific target. TRAP-1, another Hsp90 isomer that can bind PU-H71, on the other hand, was not identified as 11-target by our criteria.
(§2) SKBR3 human breast cancer cells (2.0 × 10^6 cells) were seeded on a 10 cm dish and cultured for 3 days in McCoy’s 5A in a 5% CO2 humidified chamber at 37 °C. […] As competitive experiments, the labelling was conducted in the presence of PU-H71 (10 µM). After labelling, the cells were washed twice with PBS, and lysed with RIPA buffer. […] The supernatant was mixed with chilled acetone and incubated overnight at −80 °C. The protein precipitates were solubilized by sonication in 1 mL of RIPA buffer containing 1% SDS, and then 10-fold diluted with RIPA buffer to reduce SDS concentration to c.a. 0.1%. The protein solution (containing 1 mg of protein) was mixed with Protein G Sepharose 4 Fast Flow (GE Healthcare) and rotated at 4 °C for 1 h. After removal of the beads, the remaining supernatant was mixed with anti-fluorescein antibody (Abcam, ab19491, 7:10000) and rotated at 4 °C for 1 h, followed by addition of fresh Protein G Sepharose 4 Fast Flow and further incubation at 4 °C for 4 h. The beads were washed five times with RIPA buffer and once with PBS. Proteins were eluted from the beads by addition of 2 × sample buffer containing 100 mM DTT and boiling at 95 °C for 5 min. The samples were subjected to a 7.5% SDS–PAGE gel (Mini-PROTEAN TGX Gels, BioRad), and electrophoresed as the migration distance of dye front is about 10 mm. Each lane was excised (height, 10 mm), and treated with a 47.5% methanol / 47.5% pure water / 5% acetic acid for 20 min, a 50% methanol / 50% pure water for 10 min, and in pure water for 10 min. The gel pieces were dehydrated with 100% acetonitrile, and then swelled with 200 μL of 100 mM TEAB (triethylamine bicarbonate) buffer containing 10 mM DTT and heated at 56 °C for 30 min. The solutions were replaced with 200 µL of 100 mM TEAB buffer containing 55 mM iodoacetamide and incubated for 45 min in the dark. The gel pieces were washed with 100 mM TEAB buffer and dehydrated in acetonitrile. This step was repeated once. The gels were reswelled in 100 mM TEAB buffer containing 10 ng/μL Sequencing Grade Trypsin (Promega) and incubated overnight at 37 °C. To the gels, 50 μL of an extraction solution (50% acetonitrile, 0.1% TFA) was added. After 10 min incubation, the supernatants were collected to new tubes, and this process was repeated twice. Extracted peptides were dried in vacuo and reconstituted with 25 μL of 100 mM TEAB buffer.

[2] = molecular target: T2, ADP/ATP translocase 3 (SLC25A6) (Homo sapiens, UniProt P12236); experiment: TMT LC-MSMS of 11-labelled proteins; format: cell-based
T2 sequence (P12236 1-298): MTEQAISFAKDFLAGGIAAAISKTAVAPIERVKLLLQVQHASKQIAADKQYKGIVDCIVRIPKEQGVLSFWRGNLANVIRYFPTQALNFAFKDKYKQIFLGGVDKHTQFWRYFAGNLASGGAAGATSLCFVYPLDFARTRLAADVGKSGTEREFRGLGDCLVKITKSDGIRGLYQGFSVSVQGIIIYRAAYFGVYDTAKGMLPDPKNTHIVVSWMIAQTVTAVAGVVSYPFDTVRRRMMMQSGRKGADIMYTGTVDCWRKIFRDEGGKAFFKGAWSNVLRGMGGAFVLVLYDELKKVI
Text: as §1, §2

[3] = sheet Merged, SKBR3 cells, 11 0.5 µM 3 h vs DMSO
[4] = sheet Merged, SKBR3 cells, 11 0.5 µM 3 h vs with PU-H71 10 µM

CC(=O)Oc1ccc2c(c1)Oc1cc(OC(C)=O)ccc1C21OC(=O)c2cc(C(=O)NCCOCCOCCNC(=O)CCCC(=O)N(CC#N)S(=O)(=O)c3ccc(C(=O)NCCCn4c(Sc5cc6c(cc5I)OCO6)nc5c(N)ncnc54)cc3)ccc21 [compound 11]
Abundance Ratio: (11) / (11 with PU-H71) ([1]; Exp3, SLC19A1): 0.875
Abundance Ratio: (11) / (DMSO) ([1]; Exp3, SLC19A1): 5.164
Abundances (Grouped): 11 ([1]; Exp3, SLC19A1): 56.8
Abundances (Grouped): 11 with PU-H71 ([1]; Exp3, SLC19A1): 64.9
Abundance Ratio: (11) / (11 with PU-H71) ([1]; sheet Exp2, SLC19A1): 1.054
Abundance Ratio: (11) / (DMSO) ([1]; sheet Exp2, SLC19A1): 3.79
Abundances (Grouped): 11 ([1]; sheet Exp2, SLC19A1): 111.8
Abundances (Grouped): 11 with PU-H71 ([1]; sheet Exp2, SLC19A1): 106.1
Abundance Ratio: (11) / (DMSO) [1, 3]: 4.595
Abundance Ratio: (11) / (11 with PU-H71) [1, 4]: 0.985
Abundance Ratio: (11) / (11 with PU-H71) ([2]; Exp3, SLC25A6): 0.576
Abundance Ratio: (11) / (DMSO) ([2]; Exp3, SLC25A6): 5.78
Abundances (Grouped): 11 ([2]; Exp3, SLC25A6): 626.5
Abundances (Grouped): 11 with PU-H71 ([2]; Exp3, SLC25A6): 1087.4
Abundance Ratio: (11) / (DMSO) ([2]; sheet Exp1, SKBR3 cells, 11 0.5 µM 3 h vs DMSO): 5.287
Abundance Ratio: (11) / (11 with PU-H71) ([2]; sheet Exp1, SKBR3 cells, 11 0.5 µM 3 h vs with PU-H71 10 µM): 0.613
Abundance Ratio: (11) / (11 with PU-H71) ([2]; sheet Exp2, SLC25A6): 0.601
Abundance Ratio: (11) / (DMSO) ([2]; sheet Exp2, SLC25A6): 6.595
Abundances (Grouped): 11 ([2]; sheet Exp2, SLC25A6): 579
Abundances (Grouped): 11 with PU-H71 ([2]; sheet Exp2, SLC25A6): 963.9
Abundance Ratio: (11) / (DMSO) [2, 3]: 5.939
Abundance Ratio: (11) / (11 with PU-H71) [2, 4]: 0.586

Source: paper PMC5951806, “Rapid labelling and covalent inhibition of intracellular native proteins using ligand-directed N-acyl-N-alkyl sulfonamide” (Nature Communications, 2018)
